Test results reported in article PMC9607644, “Glycoconjugation of Quinoline Derivatives Using the C-6 Position in Sugars as a Strategy for Improving the Selectivity and Cytotoxicity of Functionalized Compounds” (Molecules, 2022).

How the values were obtained:
Format in all cases: cell-based, human
HCT-116 cells [1] = experiment: Annexin V-FITC/PI apoptosis flow cytometry, HCT-116; details: IC50 dose, 24 h
Text: (§1) Apoptosis is a natural biological process involving programmed cell death and plays an important role in maintaining correct homeostasis between cell proliferation and cell death. This is in contrast to necrosis, which is accompanied by acute inflammation, preceded by cell degradation due to the loss of the integrity of the cell membrane. It is possible to distinguish viable cells from apoptotic and necrotic cell fractions using Annexin V-FITC and Propidium Iodide (PI). Annexin V-FITC labels phosphatidylserine residues that, after the start of apoptosis, are located on the outer surface of the cell membrane, enabling the identification of cells in the early stages of apoptosis. PI binds stoichiometrically to intracellular DNA during late apoptosis and necrosis when the cell membrane has been damaged. This combination allows for the differentiation of early apoptotic (A+/P−), late apoptotic (A+/P+), necrosis (A−/P+), and normal (A−/P−) cells that can be quantified by flow cytometry.
(§2) The cell cycle and the type of cell death induced by the test compounds were measured by using flow cytometry according to the manufacturer’s protocol. […] Control cells were grown with fresh medium supplemented with 0.5% DMSO. After 24 h of incubation, the cells were collected by trypsinization. Then, samples were centrifuged (3 min, 2000 rpm, RT) and washed with PBS, after which the cells were centrifuged again (3 min, 2000 rpm, RT) and the supernatant was carefully removed. The resulting precipitate contained cells, which were used for flow cytometry experiments.
(§3) The fraction of dead cells after treatment with the test compounds were detected using the FITC Annexin-V Apoptosis Detection Kit with PI (BioLegend, San Diego, CA, USA). […] 250 μL of the Annexin-V Binding Buffer was then added and the samples were incubated in the dark on ice for 15 min.

NHDF-Neo cells = experiment: Cell cycle analysis by flow cytometry, NHDF-Neo; details: IC50 dose, 24 h
Text: After determining the type of cell death caused by the test compounds, the flow cytometry technique was used to study their influence on potential changes in the course of the cell cycle of the HCT-116, MCF-7, and NHDF-Neo lines. The cell cycle is the sequence of growth and division of cells, both normal and cancerous. This process begins from the resting phase (G0) through the active growth phases (G1, S, G2), leading to mitosis (M) in which the cell’s nucleus divides. […] After this time, cells were harvested and treated with a buffer to lysate the cells and isolate the cell nuclei. Propidium iodide was used to assess the amount of DNA in particular phases of the cell cycle. Histograms of DNA content in cells are presented in the Supplementary Materials (Figure S74).
The cell cycle and the type of cell death induced by the test compounds were measured by using flow cytometry according to the manufacturer’s protocol. The cells were seeded into 6-well plates at a density of 3 × 10^5 (HCT-116) or 4 × 10^5 (MCF-7, NHDF-Neo) per well (3 mL) and allowed to attach for 24 h under standard conditions with 5% CO2 at 37 °C. The following day, the medium was removed and cells were treated with solutions of test compounds in fresh medium at a dose equal to their IC50 values. Control cells were grown with fresh medium supplemented with 0.5% DMSO. After 24 h of incubation, the cells were collected by trypsinization. Then, samples were centrifuged (3 min, 2000 rpm, RT) and washed with PBS, after which the cells were centrifuged again (3 min, 2000 rpm, RT) and the supernatant was carefully removed. The resulting precipitate contained cells, which were used for flow cytometry experiments.
For cell cycle analysis, the cells were suspended in 300 μL of hypotonic buffer (consisting of: sodium citrate dihydrate 1 g/L, propidium iodide (PI) 1 mg/mL, RNAse A 10 mg/mL (EURx, Gdańsk, Poland), Triton X-100 1:9), mixed gently and incubated in the dark at room temperature for 20–30 min. […]

HCT-116 cells [2] = experiment: MTT viability with GLUT1 inhibitor EDG, HCT-116; details: 100 µM EDG, 72 h
Experimental: (§4) To investigate the possible interaction of the tested compounds with glucose receptors and thus to check whether they target the Warburg effect, tests of the influence of the presence of the GLUT inhibitor on the effectiveness of the glycoconjugates were carried out. For this, cells were treated each time with the test compounds in the presence of 100 µM of the GLUT1 inhibitor 4,6-O-ethylidene-α-D-glucose (EDG).

MCF-7 cells [3] = experiment: MTT viability with GLUT1 inhibitor EDG, MCF-7; details: 100 µM EDG, 72 h
Experimental: as §4

MCF-7 cells [4] = experiment: Annexin V-FITC/PI apoptosis flow cytometry, MCF-7; details: IC50 dose, 24 h
Text: as §1, §2, §3

## Oc1cccc2cccnc12 [Compound 8HQ, 8-hydroxyquinoline, reference compound]
HCT-116 cells [1]
  apoptosis induction in words, HCT-116: results were similar to the control fraction
NHDF-Neo cells
  cell cycle phase distribution in words, NHDF-Neo: subG1 phase increasing
HCT-116 cells [2]
  effect of EDG inhibitor in words, HCT-116: did not have any effect on the cellular uptake
MCF-7 cells [3]
  effect of EDG inhibitor in words, MCF-7: did not have any effect on the cellular uptake
MCF-7 cells [4]
  apoptosis induction in words, MCF-7: results were similar to the control fraction
